# Test results from article PMC5259778, “Candidate pheromone receptors of codling moth Cydia pomonella respond to pheromones and kairomones” (Scientific Reports, 2017).
# What was measured:
# [1] = test system: CpomOrco + OR1; test: Whole-cell patch-clamp recording of HEK293T cells expressing CpomOrco + OR1; assay type: cell-based, Cydia pomonella; settings: VUAA3 200 μM, n = 37
# Procedure: To test transient expression of CpomORs for calcium imaging or patch-clamp recording experiments, 35-mm petri dishes containing semi-confluent HEK293T cells were transiently transfected. To transfect cells with CpomOrco, we used 1.0 μg of pcDNA5/TO/CpomOrco DNA. In order to promote expression of the OR[51], we used double aliquots for pcDNA5/TO/CpomOR DNAs (2.0 μg), combined with 1.0 μg of pcDNA5/TO/CpomOrco for co-transfections (CpomOrco + ORs). […] In patch-clamp recordings, 1.0 μg of a separate plasmid DNA (pXOOM, Clontech) carrying the coding sequence for a green fluorescent protein (GFP) was used to report expression. In order to report candidate OR-expressing cells, expression of both fluorescent reporter genes was under the regulation of the same promoter for CpomOR genes (CMV). Transfection DNAs were dissolved in 100 μL sterile DMEM, mixed with 3.0 μL Calfectin (SignaGen, Rockville, MD, USA) following the recommended protocol. […] The currents were measured with a 200B patch-clamp amplifier (Molecular Devices) and a digital interface (Digidata 1320 A, Molecular Devices), low pass filtered at 5.0 kHz, sampled at 1-2 kHz. […] The OR channel current noise was recorded using outside-out patches excised from HEK293T cells and evoked by stimulation with 250 μM VUAA3. […]
# [2] = test system: Un-transfected cells (HEK293T); test: Whole-cell patch-clamp recording of un-transfected HEK293T cells; assay type: cell-based, human; settings: 12 cells tested
# Procedure: The OR channel activity was investigated using whole-cell and outside-out patch-clamp recordings. The currents were measured with a 200B patch-clamp amplifier (Molecular Devices) and a digital interface (Digidata 1320 A, Molecular Devices), low pass filtered at 5.0 kHz, sampled at 1-2 kHz. […] OR channel related currents were investigated at a holding potential of -50/+50 mV unless otherwise specified. The polarity of the currents/voltages was presented relative to intracellular membrane surface. Appropriate corrections for liquid junction potentials were made when necessary. Patch pipettes were fabricated from borosilicate capillary glass (BF150-86-10, Sutter Instrument, CA, USA) using a Flaming-Brown micropipette puller (P-87, Sutter Instrument). Only patches with initial cell-attached seal resistance estimated higher than 1.0 GOhms were used in the experiments. Intracellular (pipette) solution for whole-cell experiments was NaCl 140 mM, EGTA 0.5 mM, Hepes 10 mM, pH 7.4 (adjusted with Tris-base, standard Na^+ 140 mM), while bath solution was usually NaCl 140 mM, CaCl2 1.0 mM, MgCl2 0-1.0 mM, KCl 5.0 mM, Hepes 10 mM, pH 7.4 (adjusted with Tris-base or NaOH). The OR channel current noise was recorded using outside-out patches excised from HEK293T cells and evoked by stimulation with 250 μM VUAA3. […]
smiles,measurement,setting,value
"CCn1c(SCC(=O)Nc2ccc(C(C)C)cc2)nnc1-c1ccncc1 [VUAA3, acetamide,2-[[4-ethyl-5-(4-pyridinyl)-4H-1,2,4-triazol-3-yl]thio]-N-[4-(1-methylethyl)phenyl]-]","inward current amplitude, variation",[1],−49 to −1165 pA
same,inward current mean amplitude,[1],−431 ± 54 pA
same,sensitivity of un-transfected cells,[2],not sensitive
